For orientation: IC50 means the concentration at which inhibition is half-maximal. As usually defined, the inhibition is the percentage by which the read-out fell short of the control.

Marks after values point to notes of the source that are not given here. Where only a bound is given, the exact number is not on record here.

One experiment deals with T1, HIV-1 integrase (Human immunodeficiency virus type 1 group M subtype B, UniProt P04585).
T1 construct: Full-length recombinant HIV-1 integrase protein was loaded onto the DS DNA substrate; purchased Xpress Bio Co EZ-1700
In words: HIV-integrase assay (strand transfer kit). The experiment is classed as biochemical. As to the method:
The integrase assay was performed using the HIV-1 integrase assay kit (Xpress Bio Co, catalog number EZ-1700, Thurmont, MD) according to the manufacturer's instructions. In this assay the streptavidin-coated 96-well plates were used and coated with a double stranded HIV-1 LTR U5 donor substrate (DS) DNA containing an end-labeled biotin. Full-length recombinant HIV-1 integrase protein was loaded onto the DS DNA substrate. After, the compounds were added in the concentration 5 - 1500 µM, and then a different double-stranded target substrate (TS) DNA containing a 3'-end modification was added to the reaction mixture. The HIV-1 integrase cleaved the terminal two bases from the exposed 3'-end of the HIV-1 LTR DS DNA and then catalyzed a strand-transfer recombination reaction to integrate the DS DNA into the TS DNA. The products of the reaction were detected colorimetrically using an HRP-labeled antibody directed against TS 3'-end modification. […] The percentage of DMSO was fixed at 2.5% v/v in all samples. The absorbance at 450 nm was recorded with an iMark™ Microplate Absorbance Reader (Bio-Rad Laboratories). The absorbance values were corrected from the mean blank absorbance (reaction buffer negative control). To calculate the IC50 values, the experimental data were fitted in a logarithm scale using Origin software (Dose response fitting).

Another experiment has as its system ARP clone 11845 (INI). In words: BiCycle assay, resistant viral strain. The experiment is classed as cell-based, HIV-1. Conditions: IC50 resistant strain / IC50 wild type NL4-3, BiCycle Assay. As for the experimental part: (§1) BiCycle Assay is cell based assay allowing the evaluation of the antiviral activity of HIV-1 inhibitors on the whole replication cycle of HIV-1. The assay consists in a first round of infection of the T-cell line MT-2 followed by infection of TZM-bl cells. MT-2 cells were seeded at a concentration of 50,000 cells/well in a 96-well plate and infected with the HIV-1 reference strain NL4-3 in presence of five-fold dilutions of the investigational compounds. After 72 hours, 50 µl of supernatant from each well, containing the virus produced in the first round of infection, were used to infect TZM-bl cells seeded in a 96-plate well at a concentration of 30,000 cells/well. Two days later, cells were lysed adding 40 µl of Glo Lysis Buffer (Promega) to each well for 5 minutes, then 40 µl of Brighy-Glo Luciferase Reagent (Promega) were added to each well for relative luminescence units (RLU) counting using Glo-Max Multi Detection System (Promega). RLU values from each well were elaborated using the GraphPad v5.0 software to calculate the IC50 of each compound.
(§2) The antiviral activity of some of the compounds listed in Table 3 was further evaluated determining the IC50 with viruses carrying resistant mutations that reduce the susceptibility to drugs currently employed in clinical practice to treat HIV infection. The resistant viruses were obtained through the NIH AIDS Reagent Program (www.aidsreagent.org) and have been already characterized by the Phenosense Assay (Monogram Biosciences), considered as the reference assay for phenotypic investigation of HIV drug resistance due to its large application in clinical trials.
(§3) IC50 values of resistant viral strains were determined by using the BiCycle Assay as previously described. The results of the analysis are summarized in Table 6, where fold change values are calculated as the ratio between the IC50 values of resistant HIV-1 strains and the IC50 value of the wild type reference HIV-1 strain NL4-3. Table 6. Fold change values of resistant viral strains

For the next experiment, the system named is ARP clone 7401 (NRTI). In words: BiCycle assay, resistant viral strain. It is filed as cell-based, HIV-1. Conditions: IC50 resistant strain / IC50 wild type NL4-3, BiCycle Assay. As to the method:
as §1, §2, §3

A further experiment deals with ARP clone 12465 (PI). In words: BiCycle assay, resistant viral strain. It is filed as cell-based, HIV-1. Conditions: IC50 resistant strain / IC50 wild type NL4-3, BiCycle Assay. As to the method: as §1, §2, §3
The next experiment has as its system HIV-DNA 2-LTR circles. In words: Quantification of 2-LTR products in infected MT-2 cells (real time PCR). The experiment is classed as cell-based, HIV-1. The settings on record: for 2-LTR/HIV-DNA ratio drug vs no-drug: NL4-3 M.O.I. 0.05, 24 hours, drug 28 1000 nM, 31 3000 nM, 23 5000 nM, Raltegravir 1000 nM. The source says:
During the replication cycle of HIV, several forms of episomic HIV-DNA can be found in the nucleous as a result of abortive integration events in the genome of the cells. Unintegrated HIV-DNA forms such 2-LTR circles are considered as a marker of ongoing replication and can be easily detected and quantified through real time PCR systems. […] Therefore, the quantification of 2-LTR circles can be used as an indirect method to test the blockade of the integration step by a candidate or licensed integrase inhibitors (Reigadas S. et al, J. Antimicrob. Chemother. 2010; 65: 434-437).
Since NCp7 partecipates to several steps of HIV replication including integration, it was developed a cell based assay aimed at the quantification of 2-LTR circles in infected cells cultured in presence of inhibitory concentrations of candidate NCp7 inhibitors. In each culture 3x10^6 MT-2 cells were infected with HIV-1 reference strain NL4-3 at M.O.I. 0.05 in presence of investigational NCp7 inhibitors 23, 31, 28. A culture with the HIV-1 Integrase inhibitor Raltegravir™ was prepared as a reference for the inhibition of integration, while an infected culture without drugs (named "no-drug") was used to compare the amount of 2-LTR in the different cultures. Table 7 indicates the concentration of drugs used in each culture in comparison to the values of EC50 (calculated through the BiCycle Assay) and the values of TD50. Table 7. Concentration of drugs used [c] in comparison to the values of EC50 (calculated through the BiCycle Assay) and the values of TD50.
Cultures were incubated at 37°C and 5% CO2 for 24 hours, then cells were harvested and total DNA was extracted using the "MagCore® Genomic DNA Whole Blood Kit" automated system (Diatech).
Around 500 ng of extracted DNA were used in separated real time PCR reactions specific for the quantification of the total genomic and HIV-1 DNA, and the HIV-DNA 2-LTR circles, respectively. Both values were normalized as copies/10^6 cells according to β-globin gene quantification included in the first method. For each culture a ratio between 2-LTR/ total HIV-DNA circles was calculated and compared to the ratio obtained with the "no-drug" culture. Table 8. 2-LTR assay results
On the technique in general: In qPCR the cycle at which signal appears reflects the starting amount.

The test system of a further experiment is ARP clone 12229 (NNRTI). In words: BiCycle assay, resistant viral strain. The experiment is classed as cell-based, HIV-1. The settings on record: IC50 resistant strain / IC50 wild type NL4-3, BiCycle Assay. As for the experimental part: as §1, §2, §3
The test system of experiment [1] is NIH Catalogue Number: 11845. Conditions: cited from earlier work.
For experiment [2], the system named is NIH Catalogue Number: 11842. Conditions: cited from earlier work.

As for `CCNCc1ccc(-c2nc(O)c(O)c(C(=O)N[C@H](C)C3CCCCC3)n2)nc1` [Compound 60, (R)-N-(1-cyclohexylethyl)-2-(5-((ethylamino)methyl)pyridin-2-yl)-5,6-dihydroxypyrimidine-4-carboxamide], at HIV-1 integrase, the 50% inhibitory concentration (IC50) was determined as 10 µM and the “fold increase in IN IC50 values in comparison to NC Inhibition IC50 values” (from here on “fold increase … to NC Inhibition IC50 values”) came out at 2.9 fold.
Take `C[C@@H](NC(=O)c1nc(-c2cc(Cl)ccn2)nc(O)c1O)C1CCCCC1` [Compound 26, (R)-2-(4-chloropyridin-2-yl)-N-(1-cyclohexylethyl)-5,6-dihydroxypyrimidine-4-carboxamide]: the “Fold change 11845 (INI)” value in the experiment on ARP clone 11845 (INI) turned out to be 0.7. Besides, the “Fold change 7401 (NRTI)” value with ARP clone 7401 (NRTI) is on record as 0.1. Further, the “Fold change 12465 (PI)” value with ARP clone 12465 (PI) turned out to be 0.5. Besides, at HIV-1 integrase, the IC50 is 150 µM and the “fold increase … to NC Inhibition IC50 values” was 100 fold.
For `Cc1cccnc1-c1nc(O)c(O)c(C(=O)N[C@H](C)C2CCCCC2)n1` [Compound 23, (R)-N-(1-cyclohexylethyl)-5,6-dihydroxy-2-(3-methylpyridin-2-yl)pyrimidine-4-carboxamide], the “2-LTR/HIV-DNA ratio drug vs no-drug” value in the experiment on HIV-DNA 2-LTR circles is on record as 0.5. Moreover, the “Fold change 12229 (NNRTI)” value in the experiment with ARP clone 12229 (NNRTI) came out at 1.0. Besides, in the experiment with ARP clone 11845 (INI), the “Fold change 11845 (INI)” value amounted to 1.2. Moreover, in the experiment with ARP clone 7401 (NRTI), the “Fold change 7401 (NRTI)” value came out at 1.4. The “Fold change 12465 (PI)” value with ARP clone 12465 (PI) is listed as 2.3.
As to `O=C(NCC1CCCCC1)c1nc(-c2ccccn2)nc(O)c1O` [Compound 1, N-(cyclohexylmethyl)-5,6-dihydroxy-2-(pyridin-2-yl)pyrimidine-4-carboxamide], the “Fold change 12229 (NNRTI)” value in the experiment on ARP clone 12229 (NNRTI) amounted to 0.6. In addition, in the experiment with ARP clone 11845 (INI), the “Fold change 11845 (INI)” value is 1.2. Besides, the “Fold change 12465 (PI)” value in the experiment with ARP clone 12465 (PI) was 2.9.
For the compound `COc1ccnc(-c2nc(O)c(O)c(C(=O)N[C@H](C)C3CCCCC3)n2)c1` [Compound 28, (R)-N-(1-cyclohexylethyl)-5,6-dihydroxy-2-(4-methoxypyridin-2-yl)pyrimidine-4-carboxamide], the “2-LTR/HIV-DNA ratio drug vs no-drug” value in the experiment on HIV-DNA 2-LTR circles was found to be 1.3. In the experiment with ARP clone 12229 (NNRTI), the “Fold change 12229 (NNRTI)” value amounted to 0.1. Besides, the “Fold change 11845 (INI)” value with ARP clone 11845 (INI) turned out to be 2.3. For the same compound, in the experiment on ARP clone 7401 (NRTI), the “Fold change 7401 (NRTI)” value turned out to be 0.8. For the same compound, the “Fold change 12465 (PI)” value with ARP clone 12465 (PI) turned out to be 3.7. On HIV-1 integrase, the IC50 was determined as 84 µM and the “fold increase … to NC Inhibition IC50 values” is 3.8 fold.
On to `C[C@@H](NC(=O)c1nc(-c2nccc3ccccc23)nc(O)c1O)C1CCCCC1` [Compound 31, (R)-N-(1-cyclohexylethyl)-5,6-dihydroxy-2-(isoquinolin-1-yl)pyrimidine-4-carboxamide], for which, in the experiment on HIV-DNA 2-LTR circles, the “2-LTR/HIV-DNA ratio drug vs no-drug” value is given as 1.1. For the same compound, in the experiment with ARP clone 12229 (NNRTI), the “Fold change 12229 (NNRTI)” value was determined as 1.3. The “Fold change 11845 (INI)” value in the experiment with ARP clone 11845 (INI) turned out to be 0.9. For the same compound, the “Fold change 7401 (NRTI)” value in the experiment on ARP clone 7401 (NRTI) amounted to 1.3. For the same compound, in the experiment with ARP clone 12465 (PI), the “Fold change 12465 (PI)” value came out at 2.1.
As for `Cc1nnc(C(=O)NC(C)(C)c2nc(C(=O)NCc3ccc(F)cc3)c(O)c(=O)n2C)o1` [Raltegravir™, Raltegravir, reference compound], the “titer / amounts of 2-LTR circles compared with "no-drug" culture” value with HIV-DNA 2-LTR circles (NL4-3, 24 hours) is given as “three times higher”. Moreover, in the experiment on HIV-DNA 2-LTR circles, the “2-LTR/HIV-DNA ratio drug vs no-drug” value was 2.9. For the same compound, the Level of resistance result in experiment [1] (INI resistant strain 11845) and in experiment [2] (INI resistant strain 11842) was “High resistance” in each case. In addition, the Fold change in experiment [1] (strain 11845, resistant virus IC50 to wild-type reference virus IC50 ratio, cut-off in brackets) was >200 (1.5^b); in experiment [2] (strain 11842, resistant virus IC50 to wild-type reference virus IC50 ratio, cut-off in brackets), 96 (1.5^b). Further, the inhibition at 0.175 µM on HIV-1 integrase (read-out: % of inhibition (positive control)) is at least 97%.

The values above are taken from EP3290412A1, “HIV-1 NUCLEOCAPSID INHIBITORS” (Università degli Studi di Siena, priority 2016, dated 2018).
